Columns and labels:
Format in all cases: cell-based
p-ERK [1] = test: Cell p-ERK assay (HTRF, Advance ERK phospho-T202/Y204 kit) in NCI-H441 cells; details: Homo sapiens, NCI-H441, 3 h, NCI-H441, human non-small cell lung cancer cell strain, KRAS G12V mutation; 3 h compound incubation
Procedure, shortened: (§1)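 Cells with endogenous KRAS mutations, AsPC-1 (G12D) and NCI-H441 (G12V), were plated overnight and then exposed to compound for 3 h at 37 °C (final 0.1% DMSO, 10% FBS medium). ERK T202/Y204 phosphorylation in lysates was read by HTRF, and IC50 was derived from four-parameter curves of inhibition relative to DMSO and blank controls.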

p-ERK [2] = test: Cell p-ERK assay (HTRF, Advance ERK phospho-T202/Y204 kit) in AsPC-1 cells; details: ASPC1; AsPC-1, human pancreatic cancer cell strain, KRAS G12D mutation; 3 h compound incubation
Procedure, shortened: as §1

NCI-H441 cells = test: 3D cell proliferation assay (CellTiter Glo-3D) in NCI-H441 cells; details: Homo sapiens, NCI-H441, 120 h, NCI-H441, human lung cancer cell strain, KRAS G12V mutation; 3D culture, 2% FBS, 5 days; read-out: H441 AP IC50
Procedure, shortened: (§2)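 After a 5-day exposure at 37 °C to 3.16-fold serial dilutions (final DMSO 0.1%) in 2% FBS RPMI-1640, ATP luminescence (CellTiter-Glo 3D) was read. Cells were AsPC-1 (KRAS G12D) or NCI-H441 (KRAS G12V), 800 per well; inhibition used DMSO and medium-only controls, with four-parameter curve fitting giving IC50.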

AsPC-1 cells = test: 3D cell proliferation assay (CellTiter Glo-3D) in AsPC-1 cells; details: ASPC1, 120 h; AsPC-1, human pancreatic cancer cell strain, KRAS G12D mutation; 3D culture, 2% FBS, 5 days; read-out: AsPC-1 AP IC50
Procedure, shortened: as §2

IC50 (p-ERK [1]) | IC50 (p-ERK [2]) | IC50 (NCI-H441 cells) | IC50 (AsPC-1 cells) | SMILES
0.32 nM | 0.08 nM | 0.11 nM | 0.05 nM | CCn1cc2c(c1-c1cc(C#CCN3CCC(C#N)(CO)CC3)cnc1[C@H](C)OC)CC(C)(C)COC(=O)[C@@H]1CCCN(N1)C(=O)[C@@H](NC(=O)[C@H]1[C@H](C)[C@@H]1C)Cc1nc(cs1)/C=C/2 (atropisomer, axis not shown; (Ra)) [Compound Z103, (1r,2R,3S)-N-((4^2Z,8^3S,2E,6S)-(Ra)-1^5-(5-(3-(4-cyano-4-(hydroxymethyl)piperidin-1-yl)prop-1-yn-1-yl)-2-((S)-1-methoxyethyl)pyridin-3-yl)-1^1-ethyl-12,12-dimethyl-7,9-dioxo-8^1,8^2,8^3,8^4,8^5,8^6-hexahydro-1^1H-10-oxa-4(4,2)-thiazola-8(1,3)-pyridazina-1(3,4)-pyrrolacyclotridecaphan-2-en-6-yl)-2,3-dimethylcyclopropane-1-carboxamide]
0.53 nM | 0.51 nM | 0.36 nM | 0.35 nM | CO[C@@H](C)c1ncc(C#CCN2CCS(=O)(=O)CC2)cc1-c1c2c(cn1C1CCCC1)/C=C/c1csc(n1)C[C@H](NC(=O)[C@H]1[C@H](C)[C@@H]1C)C(=O)N1CCC[C@H](N1)C(=O)OCC(C)(C)C2 (atropisomer, axis not shown; (Ra)) [Compound Z125, (1r,2R,3S)-N-((4^2Z,8^3S,2E,6S)-1^1-cyclopentyl-(Ra)-1^5-(5-(3-(1,1-dioxidothiomorpholino)prop-1-yn-1-yl)-2-((S)-1-methoxyethyl)pyridin-3-yl)-12,12-dimethyl-7,9-dioxo-8^1,8^2,8^3,8^4,8^5,8^6-hexahydro-1^1H-10-oxa-4(4,2)-thiazola-8(1,3)-pyridazina-1(3,4)-pyrrolycyclotridec-2-en-6-yl)-2,3-dimethylcyclopropane-1-carboxamide]
0.54 nM | 0.94 nM | 0.41 nM | 0.36 nM | CCn1cc2c(c1-c1cc(C#CCN3CCS(=O)(=O)CC3)cnc1[C@H](C)OC)CC(C)(C)COC(=O)[C@@H]1CCCN(N1)C(=O)[C@@H](NC(=O)[C@H]1[C@@H]3COC[C@@H]31)Cc1nc(cs1)/C=C/2 (atropisomer, axis not shown; (Ra)) [Compound Z130, (1R,5S,6r)-N-((4^2Z,8^3S,2E,6S)-(Ra)-1^5-(5-(3-(1,1-dioxidothiomorpholino)prop-1-yn-1-yl)-2-((S)-1-methoxyethyl)pyridin-3-yl)-1^1-ethyl-12,12-dimethyl-7,9-dioxo-8^1,8^2,8^3,8^4,8^5,8^6-hexahydro-1^1H -10-oxa-4(4,2)-thiazola-8(1,3)-pyridazina-1(3,4)-pyrrolacyclotridecaphan-2-en-6-yl)-3-oxabicyclo[3.1.0]hexane-6-carboxamide]
0.75 nM | 0.74 nM | 0.41 nM | 0.4 nM | CCn1cc2c(c1-c1cc(C#CCN3CCOCC3)cnc1[C@H](C)OC)CC(C)(C)COC(=O)[C@@H]1CCCN(N1)C(=O)[C@@H](NC(=O)[C@H]1[C@H](C)[C@@H]1C)Cc1nc(cs1)/C=C/2 (atropisomer, axis not shown; (Ra)) [Compound Z172, (1r,2R,3S)-N-((4^2Z, 8^1S, 2E, 6S)-1^1-ethyl-(Ra)-1^5-(2-((S)-1-methoxyethyl)-5-(3-morpholinoprop-1-yn-1-yl)pyridin-3-yl)-12,12-dimethyl-7,9-dioxo-8^1,8^2,8^3,8^4,8^5,8^6-hexahydro-1^1H-10-oxa-4(4,2)-thiazola-8(1,3)-pyridazina-1(3,4)-pyrrolacyclotridecaphan-2-en-6-yl)-2,3-dimethylcyclopropane-1-carboxamide]
0.6 nM | 1.04 nM | 0.56 nM | 0.56 nM | CCn1c(F)c2c(c1-c1cc(C#CCN3CCOCC3)cnc1[C@H](C)OC)CC(C)(C)COC(=O)[C@@H]1CCCN(N1)C(=O)[C@@H](NC(=O)[C@H]1[C@H](C)[C@@H]1C)Cc1nc(cs1)/C=C/2 (atropisomer, axis not shown; (Ra)) [Compound Z229, (1r, 2R, 3S)-N-((4^2Z, 8^3S, 2E,6S)-1^1-ethyl-1^2-fluoro-(Ra)-1^5-(2-((S)-1-methoxyethyl)-5-(3-morpholinoprop-yn-1-yl)pyridin-3-yl)-12,12-dimethyl-7,9-dioxo-8^1,8^2,8^3,8^4,8^5,8^6-hexahydro-1^1H-10-oxa-4(4,2)-thiazola-8(1,3)-pyridazina-1(3,4)-pyrrolacyclotridecaphan-2-en-6-yl)-2,3-dimethylcyclopropane-1-carboxamide]

The remaining lines, values behind:

SMILES | IC50 (p-ERK [1]) | IC50 (p-ERK [2]) | IC50 (NCI-H441 cells) | IC50 (AsPC-1 cells)
CCn1cc2c(c1-c1cc(C#CCN3CCC(C#N)(CO)CC3)cnc1[C@H](C)OC)CC(C)(C)COC(=O)[C@@H]1CCCN(N1)C(=O)[C@@H](NC(=O)[C@H]1[C@@H]3COC[C@@H]31)Cc1nc(cs1)/C=C/2 (atropisomer, axis not shown; (Ra)) [Compound Z104, (1R,5S,6r)-N-((4^2Z,8^3S,2E,6S)-(Ra)-1^5-(5-(3-(4-cyano-4-(hydroxymethyl)piperidin-1-yl)prop-1-yn-1-yl)-2-((S)-1-methoxyethyl)pyridin-3-yl)-1^1ethyl-12,12-dimethyl-7,9-dioxo-8^1,8^2,8^3,8^4,8^5,8^6-hexahydro-1^1H-10-oxa-4(4,2)-thiazola-8(1,3)-pyridazina-1(3,4)-pyrrolacyclotridecaphan-2-en-6-yl)-3-oxabicyclo[3.1.0]hexane-6-carboxamide] | 0.47 nM | 0.17 nM | 0.14 nM | 0.19 nM
CCn1cc2c(c1-c1cc(C#CCN3CCS(=O)(=O)CC3)cnc1[C@H](C)OC)CC(C)(C)COC(=O)[C@@H]1CCCN(N1)C(=O)[C@@H](NC(=O)[C@H]1[C@H](C)[C@@H]1C)Cc1nc(cs1)/C=C/2 (atropisomer, axis not shown; (Ra)) [Compound Z118, (1r,2R,3S)-N-((4^2Z,8^3S,2E,6S)-(Ra)-1^5-(5-(3-(1,1-dioxidothiomorpholino)prop-1-yn-1-yl)-2-((S)-1-methoxyethyl)pyridin-3-yl)-1^1-ethyl-12,12-dimethyl-7,9-dioxo-8^1,8^2,8^3,8^4,8^5,8^6-hexahydro-1^1H-10-oxa-4(4,2)-thiazola-8(1,3)-pyridazina-1(3,4)-pyrrolacyclotridecaphan-2-en-6-yl)-2,3-dimethylcyclopropane-1-carboxamide] | 0.47 nM | 0.2 nM | 0.28 nM | 0.24 nM
CCn1c(F)c2c(c1-c1cc(C#CCN3CCC(C#N)CC3)cnc1[C@H](C)OC)CC(C)(C)COC(=O)[C@@H]1CCCN(N1)C(=O)[C@@H](NC(=O)[C@H]1[C@H](C)[C@@H]1C)Cc1nc(cs1)/C=C/2 (atropisomer, axis not shown; (Ra)) [Compound Z139, (1r, 2R, 3S)-N-((4^2Z, 8^3S,2E,6S)-(Ra)-1^5-(5-(3-(4-cyanopiperidin-1-yl)prop-1-yn-1-yl)-2-((S)-1-methoxyethyl)pyridin-3-yl)-1^1-ethyl-1^2-fluoro-12,12-dimethyl-7,9-dioxo-8^1,8^1,8^1,8^4,8^5,8^6-hexahydro-1^1H-10-oxa-4(4,2)-thiazola-8(1,3)-pyridazina-1(3,4)-pyrrolacyclotridecaphan-2-en-6-yl)-2,3-dimethylcyclopropane-1-carboxamide] | 0.42 nM | 0.4 nM | 0.12 nM | 0.1 nM
CCn1c(F)c2c(c1-c1cc(C#CCN3CCC(C#N)(CN)CC3)cnc1[C@H](C)OC)CC(C)(C)COC(=O)[C@@H]1CCCN(N1)C(=O)[C@@H](NC(=O)[C@H]1[C@H](C)[C@@H]1C)Cc1nc(cs1)/C=C/2 (atropisomer, axis not shown; (Ra)) [Compound Z145, (1r,2R,3S)-N-((4^2Z, 8^3S, 2E, 6S)-(Ra)-1^5-(5-(3-(4-(aminomethyl)-4-cyanopiperidin-1-yl)prop-1-yn-1-yl)-2-((S)-1-methoxyethy)pyridin-3-yl)-1^1-ethyl-1^2-fluoro-12,12-dimethyl-7,9-dioxo-8^1,8^2,8^3,8^4,8^5,8^6-hexahydro-1^1H-10-oxa-4(4,2)-thiazola-8(1,3)-pyridazina-1(3,4)-pyrrolacyclotridecaphan-2-en-6-yl)-2,3-dimethylcyclopropane-1-carboxamide] | 0.29 nM | 0.15 nM | 0.2 nM | 0.15 nM
CCn1cc2c(c1-c1cc(N3CCN(C)CC3)cnc1[C@H](C)OC)CC(C)(C)COC(=O)[C@@H]1CCCN(N1)C(=O)[C@@H](NC(=O)[C@H]1[C@H](C)[C@@H]1C)Cc1nc(cs1)/C=C/2 (single isomer, unassigned) [Compound Z8] | 4.74 nM | 4.98 nM | 2.39 nM | 2.37 nM
CO[C@@H](C)c1ncc(C#CCN2CCS(=O)(=O)CC2)cc1-c1c2c(cn1C(C)C)/C=C/c1csc(n1)C[C@H](NC(=O)[C@H]1[C@H](C)[C@@H]1C)C(=O)N1CCC[C@H](N1)C(=O)OCC(C)(C)C2 (single isomer, unassigned) [Compound Z10] | 0.83 nM | 1.2 nM | 0.42 nM | 0.56 nM
CO[C@@H](C)c1ncc(C#CCN2CCS(=O)(=O)CC2)cc1-c1c2c(nn1C(C)C)/C=C/c1csc(n1)C[C@H](NC(=O)[C@H]1[C@H](C)[C@@H]1C)C(=O)N1CCC[C@H](N1)C(=O)OCC(C)(C)C2 (single isomer, unassigned) [Compound Z15] | 6.74 nM | 20.3 nM | 4.31 nM | 10.6 nM
